Experimental data published in US8586755B2, “Substituted nicotinamides as KCNQ2/3 modulators” (Grünenthal GmbH, priority 2009, dated 2013).
pEC50: −log10 of the molar value.

Target: T1, KCNQ2/3 channels (Homo sapiens, UniProt O43525+O43526)
T1 construct: expressed in transfected cells
Assay: Fluorescence assay using a voltage sensitive dye (fluorimetry)
Assay type: cell-based
Conditions: CHO-K1 cells expressing KCNQ2/3 channels; for pEC50: agonistic activity; for Emax / Fluorimetry % efficacy (retigabine 50 μM = 100%): retigabine 50 μM = 100%; for Emax: read-out: Fluorimetry % efficacy (retigabine 50 μM = 100%)
Protocol: Pharmacological Experiments Fluorescence Assay Using a Voltage Sensitive Dye
Human CHO-K1 cells expressing KCNQ2/3 channels are cultivated adherently at 37° C., 5% CO2 and 95% humidity in cell culture bottles (e.g. 80 cm^2 TC flasks, Nunc) with DMEM-high glucose (Sigma Aldrich, D7777) including 10% FCS (PAN Biotech, e.g. 3302-P270521) or alternatively MEM Alpha Medium (1×, liquid, Invitrogen, #22571), 10% fetal calf serum (FCS) (Invitrogen, #10270-106, heat-inactivated) and the necessary selection antibiotics.
Before being sown out for the measurements, the cells are washed with a 1×DPBS buffer without Ca^2+/Mg^2+ (e.g. Invitrogen, #14190-094) and detached from the bottom of the culture vessel by means of Accutase (PAA Laboratories, #L11-007) (incubation with Accutase for 15 min at 37° C.). The cell count then present is determined using a CASY™ cell counter (TCC model, Schärfe System) in order subsequently to apply, depending on the density optimization for the individual cell line, 20,000-30,000 cells/well/100 μl of the described nutrient medium to 96-well measuring plates of the Corning™ CellBIND™ type (Flat Clear Bottom Black Polystyrene Microplates, #3340). Incubation is then carried out for one hour at room temperature, without gassing or adjusting the humidity, followed by incubation for 24 hours at 37° C., 5% CO2 and 95% humidity.
The voltage-sensitive fluorescent dye from the Membrane Potential Assay Kit (Red™ Bulk format part R8123 for FLIPR, MDS Analytical Technologies™) is prepared by dissolving the contents of a vessel Membrane Potential Assay Kit Red Component A in 200 ml of extracellular buffer (ES buffer, 120 mM NaCl, 1 mM KCl, 10 mM HEPES, 2 mM CaCl2, 2 mM MgCl2, 10 mM glucose; pH 7.4). After removal of the nutrient medium, the cells are washed with 200 μl of ES buffer, then covered with a layer of 100 μl of the dye solution prepared above and incubated for 45 min at room temperature with the exclusion of light.
The fluorescence measurements are carried out with a BMG Labtech FLUOstar™ BMG Labtech NOVOstar™ or BMG Labtech POLARstar™ instrument (525 nm excitation, 560 nm emission, Bottom Read mode). After incubation of the dye, 50 μl of the test substances in the desired concentrations, or 50 μl of ES buffer for control purposes, are introduced into separate cavities of the measuring plate and incubated for 30 min at room temperature while being shielded from light. The fluorescence intensity of the dye is then measured for 5 min and the fluorescence value F1 of each well is thus determined at a given, constant time. 15 μl of a […] KCl solution ([…]) are then added to each well. The change in fluorescence is subsequently measured until all the relevant measured values have been obtained (mainly 5-30 min). At a given time after KCl application, a fluorescence value F2 is determined, in this case at the time of the fluorescence peak.
For calculation, the fluorescence intensity F2 is compared with the fluorescence intensity F1, and the agonistic activity of the target compound on the potassium channel is determined therefrom. F2 and F1 are calculated as follows: […]
In order to determine whether a substance has agonistic activity,
A substance has an agonistic activity on the potassium channel when
[formula] it is possible to conclude that a target compound has agonistic activity if an increase in
[formula] is to be observed as the dosage of the target compound increases.
Calculations of EC50 values are carried out with the aid of ‘Prism v4.0’ software (GraphPad Software™).

| pEC50 | Emax [%] | Fluorimetry % efficacy (retigabine 50 μM = 100%) [%] | Compound |
| --- | --- | --- | --- |
| 6.42 | 234 |  | O=C(NCC1CCCO1)c1cccnc1SCCC(F)(F)c1ccc(F)cc1 (stereo not drawn) [compound 179, 2-[[3,3-Difluoro-3-(4-fluorophenyl)-propyl]sulfanyl]-N-(tetrahydro-furan-2-yl-methyl)-pyridine-3-carboxylic acid amide] |
| 6.27 | 89 |  | CC(C)(CCNC(=O)c1cccnc1SCCCc1ccc(F)cc1)c1ccccc1 [compound 163, 2-[3-(4-Fluorophenyl)-propylsulfanyl]-N-(3-methyl-3-phenyl-butyl)-pyridine-3-carboxylic acid amide] |
|  | 37 |  | O=C(NCC1CCCCC1)c1cccnc1CCCS(=O)(=O)c1ccccc1 [compound 8, 2-[3-(Benzenesulfonyl)-propyl]-N-(cyclohexyl-methyl)-pyridine-3-carboxylic acid amide] |
| 6.42 | 268 |  | O=C(NCC1CC2CCC1C2)c1cccnc1SCCCc1cccc(O)c1 (stereo not drawn) [compound 73, N-(5-Bicyclo[2.2.1]heptanyl-methyl)-2-[3-(3-hydroxyphenyl)-propylsulfanyl]-pyridine-3-carboxylic acid amide] |
| 5.28 | 90 |  | Cc1ccc(CCCSc2ncccc2C(=O)NCc2cccs2)cc1C(F)(F)F [compound 113, 2-[3-[4-Methyl-3-(trifluoromethyl)-phenyl]-propylsulfanyl]-N-(thiophen-2-yl-methyl)-pyridine-3-carboxylic acid amide] |
| 6.26 | 128 |  | O=C(NCc1cccs1)c1cccnc1SC1CCCC(c2ccccc2)C1 (stereo not drawn) [compound 114, 2-[(3-Phenyl-cyclohexyl)sulfanyl]-N-(thiophen-2-yl-methyl)-pyridine-3-carboxylic acid amide] |
| 7.46 | 160 |  | O=C(NCC1CCCCCC1)c1cccnc1SCCC(F)(F)c1ccc(F)cc1 [compound 117, N-(Cycloheptyl-methyl)-2-[[3,3-difluoro-3-(4-fluorophenyl)-propyl]sulfanyl]-pyridine-3-carboxylic acid amide] |
| 7.59 | 214 |  | O=C(NCc1ccco1)c1cccnc1SCCC(F)(F)c1ccc(F)cc1 [compound 190, 2-[[3,3-Difluoro-3-(4-fluorophenyl)-propyl]sulfanyl]-N-(furan-2-yl-methyl)-pyridine-3-carboxylic acid amide] |
| 6.09 | 215 |  | O=C(NCc1nccs1)c1cccnc1SCCCc1ccc(F)cc1 [compound 144, 2-[3-(4-Fluorophenyl)-propylsulfanyl]-N-(thiazol-2-yl-methyl)-pyridine-3-carboxylic acid amide] |
| 7.38 |  | 213 | O=C(NCC1CC2CCC1C2)c1cccnc1SCCC(F)(F)c1ccc(F)cc1 (stereo not drawn) [compound 115] |
| 7.32 | 122 |  | CCC(CNC(=O)c1cccnc1SCCC(F)(F)c1ccc(F)cc1)OC (stereo not drawn) [compound 195, 2-[[3,3-Difluoro-3-(4-fluorophenyl)-propyl]sulfanyl]-N-(2-methoxy-butyl)-pyridine-3-carboxylic acid amide] |
| 5.85 | 99 |  | CC(C)(C)C(=O)CNC(=O)c1cccnc1SCCCc1ccc(F)cc1 [compound 125, N-(3,3-Dimethyl-2-oxo-butyl)-2-[3-(4-fluorophenyl)-propylsulfanyl]-pyridine-3-carboxylic acid amide] |
| 4.89 | 86 |  | O=C(NCCCn1ccnn1)c1cccnc1SCCCc1ccc(F)cc1 [compound 141, 2-[3-(4-Fluorophenyl)-propylsulfanyl]-N-[3-(1H-[1,2,3]triazol-1-yl)-propyl]-pyridine-3-carboxylic acid amide] |
| 5.59 | 193 |  | O=C(NCc1ncco1)c1cccnc1SCCCc1ccc(F)cc1 [compound 146, 2-[3-(4-Fluorophenyl)-propylsulfanyl]-N-(oxazol-2-yl-methyl)-pyridine-3-carboxylic acid amide] |
| 6.95 | 160 |  | O=C(NCc1cccs1)c1cccnc1SCCCc1cccc(C(F)(F)F)c1 [compound 18, N-(Thiophen-2-yl-methyl)-2-[3-[3-(trifluoromethyl)phenyl]-propylsulfanyl]-pyridine-3-carboxylic acid amide] |
| 6.74 | 274 |  | O=C(NCC1CC2CCC1C2)c1cccnc1SCCCc1ccc(F)cc1F (stereo not drawn) [compound 62, N-(5-Bicyclo[2.2.1]heptanyl-methyl)-2-[3-(2,4-difluoro-phenyl)-propylsulfanyl]-pyridine-3-carboxylic acid amide] |
| 7.43 | 159 |  | O=C(NCc1cccs1)c1cccnc1SCCC(F)(F)c1ccc(F)cc1 [compound 118, 2-[[3,3-Difluoro-3-(4-fluorophenyl)-propyl]sulfanyl]-N-(thiophen-2-yl-methyl)-pyridine-3-carboxylic acid amide] |
|  | 13 |  | O=C(NCc1cccs1)c1cccnc1CCCS(=O)(=O)c1ccccc1 [compound 10, 2-[3-(Benzenesulfonyl)-propyl]-N-(thiophen-2-yl-methyl)-pyridine-3-carboxylic acid amide] |
| 6.75 | 70 |  | Cc1ccc(CCCSc2ncccc2C(=O)NCc2cccs2)cc1 [compound 99, 2-[3-(p-Tolyl)-propylsulfanyl]-N-(thiophen-2-yl-methyl)-pyridine-3-carboxylic acid amide] |
| 6.52 |  | 200 | O=C(NCc1cccs1)c1cccnc1CCCSc1cccc(C(F)(F)F)c1 [compound 13] |
| 6.32 | 166 |  | CC(CCc1ccccc1)Sc1ncccc1C(=O)NCc1cccs1 (stereo not drawn) [compound 105, 2-[(1-Methyl-3-phenyl-propyl)sulfanyl]-N-(thiophen-2-yl-methyl)-pyridine-3-carboxylic acid amide] |
| 6.58 | 236 |  | O=C(NCC1CC2CCC1C2)c1cccnc1SCCCc1ccc(F)c(F)c1 (stereo not drawn) [compound 60, N-(5-Bicyclo[2.2.1]heptanyl-methyl)-2-[3-(3,4-difluoro-phenyl)-propylsulfanyl]-pyridine-3-carboxylic acid amide] |
| 5.79 | 224 |  | CCCCCCSc1ncccc1C(=O)NCC1CC2CCC1C2 (stereo not drawn) [compound 45, N-(5-Bicyclo[2.2.1]heptanyl-methyl)-2-(hexylsulfanyl)-pyridine-3-carboxylic acid amide] |
| 6.34 | 110 |  | O=C(NCc1cccs1)c1cccnc1SCCCCc1ccc(F)c(F)c1 [compound 110, 2-[4-(3,4-Difluoro-phenyl)-butylsulfanyl]-N-(thiophen-2-yl-methyl)-pyridine-3-carboxylic acid amide] |
| 5.42 | 163 |  | O=C(NCc1cccs1)c1cccnc1CCCSc1ccccc1 [compound 23, 2-(3-Phenylsulfanyl-propyl)-N-(thiophen-2-yl-methyl)-pyridine-3-carboxylic acid amide] |
|  | 26 |  | Cc1ccccc1CCNC(=O)c1cccnc1SCCCc1ccc(F)cc1 [compound 86, 2-[3-(4-Fluorophenyl)-propylsulfanyl]-N-[2-(o-tolyl)-ethyl]-pyridine-3-carboxylic acid amide] |
| 7.47 | 72 |  | O=C(NCc1ccccc1F)c1cccnc1SCCCc1ccc(F)cc1 [compound 63, N-[(2-Fluorophenyl)-methyl]-2-[3-(4-fluorophenyl)-propylsulfanyl]-pyridine-3-carboxylic acid amide] |
